Measured values taken from paper PMC5513037, “Examining the influence of specificity ligands and ATP-competitive ligands on the overall effectiveness of bivalent kinase inhibitors” (Proteome Science, 2017).

Key:
Experiment in all cases: KAM-matrix competition in K562 lysate;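 for 0.001 uM KAM: median log10 fold change of treatment over DMSO control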;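 for 0.01 uM KAM: median log10 fold change of treatment over DMSO control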;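 for 0.1 uM KAM: median log10 fold change of treatment over DMSO control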;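 for 1 uM KAM: median log10 fold change of treatment over DMSO control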;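 for 10 uM KAM: median log10 fold change of treatment over DMSO control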
Assay type in all cases: binding
MAPKAPK2 = molecular target: T1, MAPKAPK2 (Homo sapiens, UniProt P49137);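 for 0.001 uM KAM: median log10 fold change of treatment over DMSO control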;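 for 0.01 uM KAM: median log10 fold change of treatment over DMSO control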;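 for 0.1 uM KAM: median log10 fold change of treatment over DMSO control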;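 for 1 uM KAM: median log10 fold change of treatment over DMSO control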;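 for 10 uM KAM: median log10 fold change of treatment over DMSO control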
T1 construct: endogenous in cells; host or cells: K562
T1 sequence (P49137 whole entry): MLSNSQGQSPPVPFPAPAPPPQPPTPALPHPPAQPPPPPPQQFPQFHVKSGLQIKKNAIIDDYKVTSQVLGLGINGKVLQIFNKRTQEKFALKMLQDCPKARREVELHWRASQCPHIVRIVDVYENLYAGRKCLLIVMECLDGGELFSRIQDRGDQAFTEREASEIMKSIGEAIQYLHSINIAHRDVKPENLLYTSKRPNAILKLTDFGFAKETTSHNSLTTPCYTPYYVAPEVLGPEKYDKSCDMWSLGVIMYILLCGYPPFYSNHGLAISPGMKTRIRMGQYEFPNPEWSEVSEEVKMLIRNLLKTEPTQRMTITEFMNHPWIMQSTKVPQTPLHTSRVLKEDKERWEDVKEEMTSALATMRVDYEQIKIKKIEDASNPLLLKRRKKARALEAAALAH
Protocol: (§1) Supplement 12953_2017_125_MOESM1_ESM.zip/MS_Supp Info.xlsx, sheet "KAM" | column: 10 uM KAM; 1 uM KAM; 0.1 uM KAM; 0.01 uM KAM; 0.001 uM KAM; RB50

FER = molecular target: T2, FER (Homo sapiens, UniProt P16591)
T2 construct: endogenous in cells; host or cells: K562 lysate
T2 sequence (P16591 whole entry): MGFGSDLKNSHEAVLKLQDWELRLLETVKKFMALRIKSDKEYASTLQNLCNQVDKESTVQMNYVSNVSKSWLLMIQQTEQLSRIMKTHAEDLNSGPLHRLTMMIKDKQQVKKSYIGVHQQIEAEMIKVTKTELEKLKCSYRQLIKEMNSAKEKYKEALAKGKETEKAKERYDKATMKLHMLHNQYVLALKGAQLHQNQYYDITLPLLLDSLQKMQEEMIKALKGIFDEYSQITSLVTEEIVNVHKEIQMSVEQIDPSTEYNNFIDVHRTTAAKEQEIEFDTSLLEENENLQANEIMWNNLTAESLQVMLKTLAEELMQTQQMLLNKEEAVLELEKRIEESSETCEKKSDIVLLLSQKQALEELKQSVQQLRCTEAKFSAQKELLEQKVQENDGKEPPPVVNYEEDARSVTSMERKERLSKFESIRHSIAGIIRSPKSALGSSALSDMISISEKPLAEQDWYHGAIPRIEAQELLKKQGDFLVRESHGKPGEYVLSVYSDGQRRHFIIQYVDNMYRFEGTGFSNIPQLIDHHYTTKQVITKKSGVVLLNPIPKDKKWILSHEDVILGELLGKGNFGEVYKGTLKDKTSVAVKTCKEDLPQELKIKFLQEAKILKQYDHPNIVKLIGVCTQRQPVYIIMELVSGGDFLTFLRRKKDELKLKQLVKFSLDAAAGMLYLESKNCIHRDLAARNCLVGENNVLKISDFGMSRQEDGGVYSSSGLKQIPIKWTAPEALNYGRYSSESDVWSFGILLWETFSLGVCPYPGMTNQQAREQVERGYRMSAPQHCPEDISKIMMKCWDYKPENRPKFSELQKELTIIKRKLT
Protocol: as §1

STK3 = molecular target: T3, STK3 (Homo sapiens, UniProt Q13188)
T3 construct: endogenous in cells; host or cells: K562 cell lysate
T3 sequence (Q13188 1-491): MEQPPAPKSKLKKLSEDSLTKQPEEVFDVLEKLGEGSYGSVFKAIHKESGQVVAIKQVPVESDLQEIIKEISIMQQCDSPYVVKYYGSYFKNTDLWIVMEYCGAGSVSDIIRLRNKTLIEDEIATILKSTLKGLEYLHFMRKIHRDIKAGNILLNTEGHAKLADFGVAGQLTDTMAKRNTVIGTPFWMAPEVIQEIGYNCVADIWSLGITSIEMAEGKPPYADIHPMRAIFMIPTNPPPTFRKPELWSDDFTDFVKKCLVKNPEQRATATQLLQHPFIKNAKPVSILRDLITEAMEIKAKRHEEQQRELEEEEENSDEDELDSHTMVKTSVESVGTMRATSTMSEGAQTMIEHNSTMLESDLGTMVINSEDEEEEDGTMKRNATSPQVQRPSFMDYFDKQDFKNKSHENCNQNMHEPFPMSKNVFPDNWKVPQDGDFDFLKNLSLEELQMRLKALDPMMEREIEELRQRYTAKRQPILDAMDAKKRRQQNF
Protocol: as §1

ROCK1 = molecular target: T4, ROCK1 (Homo sapiens, UniProt Q13464);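 for 0.001 uM KAM: median log10 fold change of treatment over DMSO control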;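 for 0.01 uM KAM: median log10 fold change of treatment over DMSO control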;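 for 0.1 uM KAM: median log10 fold change of treatment over DMSO control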;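 for 1 uM KAM: median log10 fold change of treatment over DMSO control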;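 for 10 uM KAM: median log10 fold change of treatment over DMSO control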
T4 construct: endogenous in cells; host or cells: K562
T4 sequence (Q13464 whole entry): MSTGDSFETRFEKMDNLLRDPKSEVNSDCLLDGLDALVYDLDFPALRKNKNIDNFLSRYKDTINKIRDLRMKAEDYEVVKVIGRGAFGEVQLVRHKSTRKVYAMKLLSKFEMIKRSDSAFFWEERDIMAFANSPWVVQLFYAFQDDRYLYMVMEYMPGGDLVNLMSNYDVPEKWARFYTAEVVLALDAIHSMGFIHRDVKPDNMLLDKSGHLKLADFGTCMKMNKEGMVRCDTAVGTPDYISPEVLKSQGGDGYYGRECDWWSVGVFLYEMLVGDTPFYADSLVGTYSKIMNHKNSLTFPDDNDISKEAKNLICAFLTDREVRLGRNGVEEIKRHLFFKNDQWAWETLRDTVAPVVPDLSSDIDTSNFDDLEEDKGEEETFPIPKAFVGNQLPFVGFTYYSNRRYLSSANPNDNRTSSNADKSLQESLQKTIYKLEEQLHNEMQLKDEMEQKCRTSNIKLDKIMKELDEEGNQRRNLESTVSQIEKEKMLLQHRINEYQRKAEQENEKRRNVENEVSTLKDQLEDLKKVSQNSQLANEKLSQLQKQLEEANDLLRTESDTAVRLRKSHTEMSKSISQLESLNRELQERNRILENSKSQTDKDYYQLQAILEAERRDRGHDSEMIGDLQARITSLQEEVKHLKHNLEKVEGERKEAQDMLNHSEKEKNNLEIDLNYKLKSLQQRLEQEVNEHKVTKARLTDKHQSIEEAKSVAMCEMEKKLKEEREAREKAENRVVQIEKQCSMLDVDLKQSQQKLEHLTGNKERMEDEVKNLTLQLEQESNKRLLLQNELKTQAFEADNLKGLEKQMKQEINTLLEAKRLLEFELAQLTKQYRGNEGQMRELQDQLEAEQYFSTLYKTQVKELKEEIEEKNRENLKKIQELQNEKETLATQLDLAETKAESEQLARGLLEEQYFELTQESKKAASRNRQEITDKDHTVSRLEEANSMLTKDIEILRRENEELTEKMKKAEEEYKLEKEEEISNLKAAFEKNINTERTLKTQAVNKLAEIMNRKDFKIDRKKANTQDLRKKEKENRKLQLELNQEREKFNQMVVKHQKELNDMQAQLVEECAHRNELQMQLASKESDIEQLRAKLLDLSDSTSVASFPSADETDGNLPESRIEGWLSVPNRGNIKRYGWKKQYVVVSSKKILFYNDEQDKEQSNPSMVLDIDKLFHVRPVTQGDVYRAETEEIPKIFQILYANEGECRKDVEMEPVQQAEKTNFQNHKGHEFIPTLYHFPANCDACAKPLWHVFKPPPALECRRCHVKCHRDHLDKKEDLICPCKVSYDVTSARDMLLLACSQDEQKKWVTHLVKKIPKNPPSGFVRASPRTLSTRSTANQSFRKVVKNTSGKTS
Protocol: as §1

MAP3K5 = molecular target: T5, MAP3K5 (Homo sapiens, UniProt Q99683)
T5 construct: endogenous in cells; host or cells: K562 cell lysate
T5 sequence (Q99683 1-1374): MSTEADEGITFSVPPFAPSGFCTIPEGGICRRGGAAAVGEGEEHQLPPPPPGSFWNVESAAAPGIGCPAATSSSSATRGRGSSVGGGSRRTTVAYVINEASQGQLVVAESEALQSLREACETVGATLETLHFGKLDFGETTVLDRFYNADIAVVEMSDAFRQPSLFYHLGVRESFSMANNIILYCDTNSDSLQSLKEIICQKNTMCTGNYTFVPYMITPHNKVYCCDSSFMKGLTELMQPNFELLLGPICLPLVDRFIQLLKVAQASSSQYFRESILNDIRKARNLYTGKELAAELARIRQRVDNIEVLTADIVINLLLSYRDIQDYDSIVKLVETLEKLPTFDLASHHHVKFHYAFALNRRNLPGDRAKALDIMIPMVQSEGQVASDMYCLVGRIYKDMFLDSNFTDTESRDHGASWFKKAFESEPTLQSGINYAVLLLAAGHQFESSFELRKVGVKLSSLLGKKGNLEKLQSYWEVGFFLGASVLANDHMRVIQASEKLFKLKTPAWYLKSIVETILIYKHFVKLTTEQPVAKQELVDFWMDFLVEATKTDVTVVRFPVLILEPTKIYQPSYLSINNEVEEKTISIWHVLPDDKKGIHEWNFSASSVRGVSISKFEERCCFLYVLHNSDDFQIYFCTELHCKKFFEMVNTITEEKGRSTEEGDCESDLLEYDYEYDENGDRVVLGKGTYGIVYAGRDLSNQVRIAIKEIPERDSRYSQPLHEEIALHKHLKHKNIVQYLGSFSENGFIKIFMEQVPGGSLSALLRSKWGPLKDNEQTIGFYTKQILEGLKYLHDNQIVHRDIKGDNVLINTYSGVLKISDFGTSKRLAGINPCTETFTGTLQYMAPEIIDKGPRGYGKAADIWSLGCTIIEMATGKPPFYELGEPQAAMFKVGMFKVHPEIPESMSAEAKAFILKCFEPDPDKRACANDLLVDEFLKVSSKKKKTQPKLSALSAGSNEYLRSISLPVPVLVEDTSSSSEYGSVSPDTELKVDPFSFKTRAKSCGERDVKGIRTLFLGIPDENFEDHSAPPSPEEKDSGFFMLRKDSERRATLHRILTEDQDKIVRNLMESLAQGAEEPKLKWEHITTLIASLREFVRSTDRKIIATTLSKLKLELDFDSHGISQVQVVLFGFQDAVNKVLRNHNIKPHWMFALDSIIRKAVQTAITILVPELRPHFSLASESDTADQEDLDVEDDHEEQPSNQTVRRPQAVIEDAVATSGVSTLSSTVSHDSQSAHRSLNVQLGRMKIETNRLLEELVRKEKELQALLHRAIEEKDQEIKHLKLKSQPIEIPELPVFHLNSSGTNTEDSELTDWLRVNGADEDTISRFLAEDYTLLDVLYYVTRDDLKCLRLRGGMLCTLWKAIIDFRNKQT
Protocol: as §1

PKN3 = molecular target: T6, PKN3 (Homo sapiens, UniProt Q6P5Z2);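 for 0.001 uM KAM: median log10 fold change of treatment over DMSO control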;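 for 0.01 uM KAM: median log10 fold change of treatment over DMSO control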;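 for 0.1 uM KAM: median log10 fold change of treatment over DMSO control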;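 for 1 uM KAM: median log10 fold change of treatment over DMSO control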;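 for 10 uM KAM: median log10 fold change of treatment over DMSO control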
T6 construct: endogenous in cells; host or cells: K562
T6 sequence (Q6P5Z2 whole entry): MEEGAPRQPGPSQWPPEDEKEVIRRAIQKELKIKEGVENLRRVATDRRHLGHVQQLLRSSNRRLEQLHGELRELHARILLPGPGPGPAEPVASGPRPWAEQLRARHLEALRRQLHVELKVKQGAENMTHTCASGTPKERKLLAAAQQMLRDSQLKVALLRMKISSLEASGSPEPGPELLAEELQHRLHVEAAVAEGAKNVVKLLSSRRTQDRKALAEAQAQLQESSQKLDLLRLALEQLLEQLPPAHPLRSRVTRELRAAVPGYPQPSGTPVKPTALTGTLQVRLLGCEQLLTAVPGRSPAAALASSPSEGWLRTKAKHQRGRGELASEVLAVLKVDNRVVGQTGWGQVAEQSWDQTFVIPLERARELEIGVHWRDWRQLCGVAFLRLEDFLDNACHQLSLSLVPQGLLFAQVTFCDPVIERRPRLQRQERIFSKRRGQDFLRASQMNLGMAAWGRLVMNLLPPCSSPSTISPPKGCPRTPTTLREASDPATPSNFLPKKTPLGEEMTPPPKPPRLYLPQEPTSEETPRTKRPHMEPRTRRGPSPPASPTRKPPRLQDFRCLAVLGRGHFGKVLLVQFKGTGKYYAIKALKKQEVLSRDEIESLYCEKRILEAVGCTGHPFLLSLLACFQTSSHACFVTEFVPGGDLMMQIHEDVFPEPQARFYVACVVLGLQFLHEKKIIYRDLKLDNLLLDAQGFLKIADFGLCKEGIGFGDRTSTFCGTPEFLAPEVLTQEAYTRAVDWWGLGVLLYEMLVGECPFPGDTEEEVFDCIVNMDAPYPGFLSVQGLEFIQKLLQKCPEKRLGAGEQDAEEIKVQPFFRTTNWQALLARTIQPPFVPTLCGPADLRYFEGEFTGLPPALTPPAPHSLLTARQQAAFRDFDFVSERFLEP
Protocol: as §1

MAP4K4 = molecular target: T7, MAP4K4 (Homo sapiens, UniProt O95819);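 for 0.001 uM KAM: median log10 fold change of treatment over DMSO control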;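 for 0.01 uM KAM: median log10 fold change of treatment over DMSO control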;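 for 0.1 uM KAM: median log10 fold change of treatment over DMSO control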;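 for 1 uM KAM: median log10 fold change of treatment over DMSO control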;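 for 10 uM KAM: median log10 fold change of treatment over DMSO control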
T7 construct: endogenous in cells; host or cells: K562
T7 sequence (O95819 whole entry): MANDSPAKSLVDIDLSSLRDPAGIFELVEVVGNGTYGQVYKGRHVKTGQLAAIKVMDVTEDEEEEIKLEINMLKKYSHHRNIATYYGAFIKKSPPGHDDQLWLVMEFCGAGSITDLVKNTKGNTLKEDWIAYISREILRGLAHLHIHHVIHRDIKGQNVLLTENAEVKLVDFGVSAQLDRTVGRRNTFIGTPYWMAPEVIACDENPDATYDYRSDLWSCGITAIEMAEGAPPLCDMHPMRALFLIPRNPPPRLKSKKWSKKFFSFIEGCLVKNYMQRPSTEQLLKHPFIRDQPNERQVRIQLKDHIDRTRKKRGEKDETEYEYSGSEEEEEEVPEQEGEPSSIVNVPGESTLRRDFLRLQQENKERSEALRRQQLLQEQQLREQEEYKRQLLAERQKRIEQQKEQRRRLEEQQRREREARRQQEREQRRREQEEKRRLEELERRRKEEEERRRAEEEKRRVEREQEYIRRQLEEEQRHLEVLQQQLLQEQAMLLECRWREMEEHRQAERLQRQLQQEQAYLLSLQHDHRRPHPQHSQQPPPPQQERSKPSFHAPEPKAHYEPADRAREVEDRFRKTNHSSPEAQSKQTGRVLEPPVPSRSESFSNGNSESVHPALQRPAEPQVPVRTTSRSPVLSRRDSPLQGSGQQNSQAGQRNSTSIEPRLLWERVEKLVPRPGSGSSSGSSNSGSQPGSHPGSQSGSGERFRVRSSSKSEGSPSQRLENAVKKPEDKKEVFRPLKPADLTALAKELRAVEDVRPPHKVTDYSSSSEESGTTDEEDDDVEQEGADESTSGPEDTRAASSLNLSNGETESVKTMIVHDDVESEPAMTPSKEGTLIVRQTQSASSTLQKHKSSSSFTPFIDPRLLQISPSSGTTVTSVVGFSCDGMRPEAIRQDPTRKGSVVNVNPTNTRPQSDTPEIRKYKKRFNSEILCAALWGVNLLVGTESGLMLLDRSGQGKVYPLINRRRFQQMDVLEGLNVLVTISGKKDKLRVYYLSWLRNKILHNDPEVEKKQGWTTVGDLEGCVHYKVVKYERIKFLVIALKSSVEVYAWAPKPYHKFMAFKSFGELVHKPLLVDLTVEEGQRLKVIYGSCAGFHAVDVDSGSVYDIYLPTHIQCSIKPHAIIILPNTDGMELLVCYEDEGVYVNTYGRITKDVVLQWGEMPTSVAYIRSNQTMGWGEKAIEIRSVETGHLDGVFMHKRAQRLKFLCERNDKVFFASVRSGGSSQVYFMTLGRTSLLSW
Protocol: as §1

[1] = KAM 0.001-10 uM, read-out: RB50 (the source's name)
[2] = read-out: RB50 (the source's name)

N#CCc1ccc(Nc2nc(NCCCN)cc(Nc3cc(C4CC4)[nH]n3)n2)cc1 [KAM]
IC50 (MAPKAPK2; [1]): > 10 µM
0.001 uM KAM (MAPKAPK2; relative to 0 uM KAM = 0): 0.05207
0.01 uM KAM (MAPKAPK2; relative to 0 uM KAM = 0): -0.01973
0.1 uM KAM (MAPKAPK2; relative to 0 uM KAM = 0): 0.02471
1 uM KAM (MAPKAPK2; relative to 0 uM KAM = 0): 0.08157
10 uM KAM (MAPKAPK2; relative to 0 uM KAM = 0): 0.02045
median Log10 fold change (FER; 0.001 uM KAM): -0.01643
median Log10 fold change (FER; 0.01 uM KAM): -0.02602
median Log10 fold change (FER; 0.1 uM KAM): -0.1873
median Log10 fold change (FER; 1 uM KAM): -0.4903
median Log10 fold change (FER; 10 uM KAM): -0.6195
IC50 (FER; [2]): 0.319 µM
median Log10 fold change (STK3; 0.001 uM KAM): -0.01987
median Log10 fold change (STK3; 0.01 uM KAM): -0.0374
median Log10 fold change (STK3; 0.1 uM KAM): -0.2245
median Log10 fold change (STK3; 1 uM KAM): -0.1979
median Log10 fold change (STK3; 10 uM KAM): -0.3452
IC50 (STK3; [2]): 3.72 µM
IC50 (ROCK1; [1]): > 10 µM
0.001 uM KAM (ROCK1; relative to 0 uM KAM = 0): -0.0607
0.01 uM KAM (ROCK1; relative to 0 uM KAM = 0): -0.006672
0.1 uM KAM (ROCK1; relative to 0 uM KAM = 0): -0.08063
1 uM KAM (ROCK1; relative to 0 uM KAM = 0): -0.07367
10 uM KAM (ROCK1; relative to 0 uM KAM = 0): -0.1223
median Log10 fold change (MAP3K5; 0.001 uM KAM): -0.02718
median Log10 fold change (MAP3K5; 0.01 uM KAM): -0.01436
median Log10 fold change (MAP3K5; 0.1 uM KAM): -0.08414
median Log10 fold change (MAP3K5; 1 uM KAM): -0.1836
median Log10 fold change (MAP3K5; 10 uM KAM): -0.3705
IC50 (MAP3K5; [2]): 4.18 µM
IC50 (PKN3; [1]): > 10 µM
0.001 uM KAM (PKN3; relative to 0 uM KAM = 0): 0.01928
0.01 uM KAM (PKN3; relative to 0 uM KAM = 0): 0.02728
0.1 uM KAM (PKN3; relative to 0 uM KAM = 0): -0.02092
1 uM KAM (PKN3; relative to 0 uM KAM = 0): -0.1078
10 uM KAM (PKN3; relative to 0 uM KAM = 0): -0.2223
IC50 (MAP4K4; [1]): > 10 µM
0.001 uM KAM (MAP4K4; relative to 0 uM KAM = 0): -0.04181
0.01 uM KAM (MAP4K4; relative to 0 uM KAM = 0): -0.007384
0.1 uM KAM (MAP4K4; relative to 0 uM KAM = 0): -0.1078
1 uM KAM (MAP4K4; relative to 0 uM KAM = 0): -0.1201
10 uM KAM (MAP4K4; relative to 0 uM KAM = 0): -0.1434
